This is an account of results in paper PMC2796783, “Pharmacological Characterization of Inositol 1,4,5-tris Phosphate Receptors in Human Platelet Membranes” (Cardiovascular Psychiatry and Neurology, 2009).

Assay [1] concerns T1, Ins(1,4,5)P3 receptors in human platelet membranes.
T1 construct: gene ITPR1; native receptor in crude platelet membranes of healthy human subjects; not purified; tetrameric channel
Description: displacement of […] [3H]Ins([…])P3, filtration, log probit analysis. The conditions noted are these: 20 nM [3H]Ins(1,4,5)P3, 50 mM Tris-HCl pH 8.5, 1 mM EDTA, 4 °C, 10 min. Format: binding.

The test system is the same in assay [2]. Description: radioligand saturation binding, filtration, Scatchard (EBDA). The note with it: 50 mM Tris-HCl pH 8.5, 1 mM EDTA, 1 mM 2-mercaptoethanol, 4 °C, 10 min; labelled compound; crude platelet membranes; single site.

In the case of `O=P(O)(O)O[C@H]1[C@@H](O)[C@H](O)[C@@H](OP(=O)(O)O)[C@H](OP(=O)(O)O)[C@H]1O` [D-Ins(2,4,5)P3], the IC50 (commonly the concentration at which inhibition is half-maximal) in assay [1] was 1.9 ± 0.68 µM. As to `O=P(O)(O)O[C@@H]1[C@@H](O)[C@@H](O)[C@@H](OP(=O)(O)OC[C@H](O)CO)[C@H](O)[C@H]1OP(=O)(O)O` [GPIP2], the IC50 in assay [1] came out at 4.97 ± 1.83 µM. In assay [1], `O=P(O)(O)O[C@@H]1[C@@H](O)[C@H](OP(=O)(O)O)[C@@H](OP(=O)(O)O)[C@H](O)[C@@H]1O` [L-Ins(1,4,5)P3] had an IC50 of 354 ± 37 µM. With `O=P(O)(O)O[C@@H]1[C@H](O)[C@H](O)[C@@H](OP(=O)(O)O)[C@H](OP(=O)(O)O)[C@H]1O` [[^3H]Ins(1,4,5)P3], binding in assay [2] was put at a Kd of 0.0221 ± 0.00234 µM. The IC50 in assay [1] (error exceeds the value) worked out at 0.3 ± 0.5 µM.
